Active and inactive are the calls of the source.
Experiments:
[1] = system: Escherichia coli; assay: microbe, parasite or virus in culture
[2] = target: T1, Leucine aminopeptidase (Plasmodium falciparum 3D7, UniProt Q8IL11); assay: P. falciparum M17LAP inhibitors, primary screen, biochemical, fluorogenic H-Leu-NHMec substrate, 1536-well (AID 1619); format: functional
T1 sequence (Q8IL11 whole entry): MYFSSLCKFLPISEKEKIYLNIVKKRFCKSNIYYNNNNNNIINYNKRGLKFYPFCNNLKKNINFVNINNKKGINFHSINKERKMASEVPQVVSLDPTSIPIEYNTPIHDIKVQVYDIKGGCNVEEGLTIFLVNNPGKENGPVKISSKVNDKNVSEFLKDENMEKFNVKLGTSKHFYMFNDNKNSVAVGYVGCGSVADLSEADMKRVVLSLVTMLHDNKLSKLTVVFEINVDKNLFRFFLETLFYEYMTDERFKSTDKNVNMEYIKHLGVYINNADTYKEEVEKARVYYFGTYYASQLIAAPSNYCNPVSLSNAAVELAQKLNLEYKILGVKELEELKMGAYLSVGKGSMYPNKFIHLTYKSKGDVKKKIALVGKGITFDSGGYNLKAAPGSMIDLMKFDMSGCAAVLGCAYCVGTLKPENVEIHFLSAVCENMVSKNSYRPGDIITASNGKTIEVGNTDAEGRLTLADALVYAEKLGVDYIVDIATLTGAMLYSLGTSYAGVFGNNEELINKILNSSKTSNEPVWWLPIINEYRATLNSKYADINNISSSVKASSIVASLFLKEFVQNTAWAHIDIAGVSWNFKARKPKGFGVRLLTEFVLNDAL

[3] = target: T2, Aminopeptidase N (Plasmodium falciparum FcB1/Columbia, UniProt O96935); assay: P. falciparum M1AAP inhibitors, biochemical, fluorogenic H-Leu-NHMec substrate, 1536-well (AID 1445); parameters: species or system Plasmodium falciparum 3D7, 3D7
T2 sequence (O96935 whole entry): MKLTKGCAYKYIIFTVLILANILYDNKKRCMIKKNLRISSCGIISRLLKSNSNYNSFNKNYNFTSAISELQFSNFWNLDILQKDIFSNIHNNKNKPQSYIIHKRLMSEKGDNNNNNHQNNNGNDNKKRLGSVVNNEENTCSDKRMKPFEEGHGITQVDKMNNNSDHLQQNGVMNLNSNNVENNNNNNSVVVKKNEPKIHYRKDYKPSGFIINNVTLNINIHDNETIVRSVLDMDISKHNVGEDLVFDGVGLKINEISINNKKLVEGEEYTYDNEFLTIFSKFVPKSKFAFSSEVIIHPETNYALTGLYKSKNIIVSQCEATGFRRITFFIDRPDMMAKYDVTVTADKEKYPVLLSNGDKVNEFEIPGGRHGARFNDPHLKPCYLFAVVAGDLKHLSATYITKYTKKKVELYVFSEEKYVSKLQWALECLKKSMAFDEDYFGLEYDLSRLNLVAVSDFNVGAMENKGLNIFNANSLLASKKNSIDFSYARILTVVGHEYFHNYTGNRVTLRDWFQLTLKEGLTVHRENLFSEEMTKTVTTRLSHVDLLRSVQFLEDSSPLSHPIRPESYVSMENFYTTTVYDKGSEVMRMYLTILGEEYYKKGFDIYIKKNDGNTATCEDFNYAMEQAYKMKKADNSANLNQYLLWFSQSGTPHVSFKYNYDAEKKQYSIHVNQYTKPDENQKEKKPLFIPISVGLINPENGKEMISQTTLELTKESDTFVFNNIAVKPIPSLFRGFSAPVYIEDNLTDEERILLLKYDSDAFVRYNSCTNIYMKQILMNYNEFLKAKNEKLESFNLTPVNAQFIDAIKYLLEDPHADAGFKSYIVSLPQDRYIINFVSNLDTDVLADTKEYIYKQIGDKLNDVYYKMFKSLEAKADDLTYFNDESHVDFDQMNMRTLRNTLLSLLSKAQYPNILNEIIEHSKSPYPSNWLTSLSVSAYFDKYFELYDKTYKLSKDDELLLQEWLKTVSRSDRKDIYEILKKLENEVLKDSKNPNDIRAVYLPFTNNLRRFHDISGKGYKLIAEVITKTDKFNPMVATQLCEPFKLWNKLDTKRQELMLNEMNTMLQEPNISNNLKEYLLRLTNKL

[4] = target: Beta-galactosidase (Escherichia coli, UniProt Q8VNN2); assay: PubChem AID 485352; format: functional
[5] = target: T3, Type-1 angiotensin II receptor (Homo sapiens, UniProt P30556); assay: AT1 receptor antagonists, dose response, selectivity assay for APJ receptor antagonist project, cell-based, uHTS hits (AID 463214); format: functional;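 also: antagonist potency against angiotensin II stimulated AT1 response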
T3 sequence (P30556 whole entry): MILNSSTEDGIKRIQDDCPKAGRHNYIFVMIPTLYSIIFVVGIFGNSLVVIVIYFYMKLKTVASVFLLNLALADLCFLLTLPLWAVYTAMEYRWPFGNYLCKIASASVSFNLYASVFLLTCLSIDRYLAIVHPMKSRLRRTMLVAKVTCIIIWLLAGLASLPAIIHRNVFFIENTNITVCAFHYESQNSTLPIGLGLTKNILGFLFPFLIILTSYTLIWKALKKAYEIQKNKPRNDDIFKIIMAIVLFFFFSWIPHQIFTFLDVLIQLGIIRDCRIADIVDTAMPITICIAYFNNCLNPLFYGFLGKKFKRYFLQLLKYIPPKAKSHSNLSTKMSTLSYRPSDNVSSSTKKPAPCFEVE

[6] = target: Voltage-dependent T-type calcium channel subunit alpha-1H (Homo sapiens, UniProt O95180); format: functional;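 also: channel activity triggered by adding a high calcium stimulation buffer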
[7] = target: T4, Short transient receptor potential channel 4 (Mus musculus, UniProt Q9QUQ5); assay: mouse TRPC4 channel inhibitors, dose response, cell-based, HEK293 TRPC4/mu-opioid, Fluo-4 calcium (AID 434942); format: functional;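 also: potency of inhibitors blocking the TRPC4 calcium response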
T4 sequence (Q9QUQ5 whole entry): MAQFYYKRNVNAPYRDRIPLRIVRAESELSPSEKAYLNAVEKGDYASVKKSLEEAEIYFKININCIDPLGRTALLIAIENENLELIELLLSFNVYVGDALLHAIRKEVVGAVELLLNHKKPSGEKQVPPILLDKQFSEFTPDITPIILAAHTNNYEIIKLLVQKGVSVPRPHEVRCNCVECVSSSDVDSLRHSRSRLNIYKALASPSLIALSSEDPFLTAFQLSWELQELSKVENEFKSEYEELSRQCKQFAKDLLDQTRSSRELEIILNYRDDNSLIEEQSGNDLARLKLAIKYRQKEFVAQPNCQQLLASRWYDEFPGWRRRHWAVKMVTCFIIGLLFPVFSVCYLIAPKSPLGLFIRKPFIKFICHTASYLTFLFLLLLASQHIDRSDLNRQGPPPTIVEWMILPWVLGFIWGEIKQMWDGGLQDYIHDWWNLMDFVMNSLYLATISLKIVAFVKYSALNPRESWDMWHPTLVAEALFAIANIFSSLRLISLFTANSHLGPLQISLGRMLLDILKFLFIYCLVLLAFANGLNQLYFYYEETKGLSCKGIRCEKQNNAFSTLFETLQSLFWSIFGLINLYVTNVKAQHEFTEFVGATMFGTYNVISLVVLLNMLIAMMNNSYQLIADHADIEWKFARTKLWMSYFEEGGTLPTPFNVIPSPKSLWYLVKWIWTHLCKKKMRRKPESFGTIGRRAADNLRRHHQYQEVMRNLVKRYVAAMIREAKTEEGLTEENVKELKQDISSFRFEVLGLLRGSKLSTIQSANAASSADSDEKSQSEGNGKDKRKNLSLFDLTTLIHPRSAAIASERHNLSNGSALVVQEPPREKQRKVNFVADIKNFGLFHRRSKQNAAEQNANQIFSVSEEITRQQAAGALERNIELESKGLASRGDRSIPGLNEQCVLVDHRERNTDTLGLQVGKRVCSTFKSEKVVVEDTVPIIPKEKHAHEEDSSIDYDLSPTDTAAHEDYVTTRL

[8] = system: HEK293; assay: NOD1 signaling inhibitors, primary screen, cell-based, luminescence, uHTS (AID 1578); format: functional; settings: Homo sapiens
[9] = system: HEK293; assay: cells; format: functional, cell-based; settings: Homo sapiens
[10] = system: HEK293; assay: cells; format: functional, cell-based; settings: Homo sapiens; remark: listed apart in the source
[11] = target: Nucleotide-binding oligomerization domain-containing protein 2 (Homo sapiens, UniProt Q9HC29); assay: NOD2 signaling inhibitors, cell-based, luminescence, uHTS, HEK293 (AID 1566); format: functional
[12] = system: HEK293; assay: NOD2 signaling inhibitors in MDP-stimulated cells, cell-based, uHTS, luminescence (AID 2001); format: functional; settings: Homo sapiens
[13] = system: HEK293; assay: cells; format: functional, cell-based; settings: Homo sapiens; remark: listed apart in the source
[14] = cytotoxicity in HEK-293T cells, dose response, cytotoxicity control for TCR NF-kB inhibitor project, luminescence, T-cell screen hits (AID 489026); format: functional, cell-based;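 also: cells exposed to compound about 14 hours before the viability readout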
[15] = system: INS1; assay: beta cell apoptosis inhibitors, cytokine rescue, dose response, luminescence, retest (AID 449756); format: functional, cell-based; settings: Rattus norvegicus;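 also: cell death triggered by IL-1 beta plus TNF-alpha plus IFN-gamma mixture; protective hits raise ATP signal compared with cytokine alone wells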
[16] = Shn3 3'UTR reporter inhibitors, dose response, cell-based, Clone20 osteoblasts, firefly luciferase, cherry-picked (AID 624132); format: functional;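 also: firefly luciferase luminescence from reporter carrying the Shn3 3'UTR in osteoblasts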
[17] = HepG2 cell cytotoxicity, dose response, cytotoxicity control for Shn3 inhibitor project, CellTiter-Glo, cherry-picked (AID 624134); format: functional, cell-based
[18] = target: Alkaline phosphatase, placental type (Homo sapiens, UniProt P05187); assay: PLAP enzyme inhibitors, confirmation, biochemical, luminescence (AID 1512); format: functional
[19] = target: T5, Alkaline phosphatase, tissue-nonspecific isozyme (Homo sapiens, UniProt P05186); assay: human TNAP enzyme inhibitors, SAR follow-up, biochemical, luminescent, dose response (AID 1056)
T5 sequence (P05186 whole entry): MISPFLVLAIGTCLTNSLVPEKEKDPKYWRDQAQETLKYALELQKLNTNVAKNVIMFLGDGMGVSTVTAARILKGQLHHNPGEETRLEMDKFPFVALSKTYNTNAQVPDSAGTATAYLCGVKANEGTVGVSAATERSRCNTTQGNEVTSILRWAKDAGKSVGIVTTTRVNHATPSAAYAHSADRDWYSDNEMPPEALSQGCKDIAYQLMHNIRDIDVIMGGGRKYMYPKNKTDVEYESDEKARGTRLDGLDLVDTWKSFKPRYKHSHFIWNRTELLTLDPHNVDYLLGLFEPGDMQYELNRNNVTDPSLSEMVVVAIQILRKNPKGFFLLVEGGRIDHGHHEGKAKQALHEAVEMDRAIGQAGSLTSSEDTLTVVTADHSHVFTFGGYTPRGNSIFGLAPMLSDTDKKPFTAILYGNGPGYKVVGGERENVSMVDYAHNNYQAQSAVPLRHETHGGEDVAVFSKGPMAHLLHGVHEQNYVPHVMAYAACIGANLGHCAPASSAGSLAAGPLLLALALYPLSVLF

Chain of Voltage-dependent T-type calcium channel subunit alpha-1H (O95180 whole entry): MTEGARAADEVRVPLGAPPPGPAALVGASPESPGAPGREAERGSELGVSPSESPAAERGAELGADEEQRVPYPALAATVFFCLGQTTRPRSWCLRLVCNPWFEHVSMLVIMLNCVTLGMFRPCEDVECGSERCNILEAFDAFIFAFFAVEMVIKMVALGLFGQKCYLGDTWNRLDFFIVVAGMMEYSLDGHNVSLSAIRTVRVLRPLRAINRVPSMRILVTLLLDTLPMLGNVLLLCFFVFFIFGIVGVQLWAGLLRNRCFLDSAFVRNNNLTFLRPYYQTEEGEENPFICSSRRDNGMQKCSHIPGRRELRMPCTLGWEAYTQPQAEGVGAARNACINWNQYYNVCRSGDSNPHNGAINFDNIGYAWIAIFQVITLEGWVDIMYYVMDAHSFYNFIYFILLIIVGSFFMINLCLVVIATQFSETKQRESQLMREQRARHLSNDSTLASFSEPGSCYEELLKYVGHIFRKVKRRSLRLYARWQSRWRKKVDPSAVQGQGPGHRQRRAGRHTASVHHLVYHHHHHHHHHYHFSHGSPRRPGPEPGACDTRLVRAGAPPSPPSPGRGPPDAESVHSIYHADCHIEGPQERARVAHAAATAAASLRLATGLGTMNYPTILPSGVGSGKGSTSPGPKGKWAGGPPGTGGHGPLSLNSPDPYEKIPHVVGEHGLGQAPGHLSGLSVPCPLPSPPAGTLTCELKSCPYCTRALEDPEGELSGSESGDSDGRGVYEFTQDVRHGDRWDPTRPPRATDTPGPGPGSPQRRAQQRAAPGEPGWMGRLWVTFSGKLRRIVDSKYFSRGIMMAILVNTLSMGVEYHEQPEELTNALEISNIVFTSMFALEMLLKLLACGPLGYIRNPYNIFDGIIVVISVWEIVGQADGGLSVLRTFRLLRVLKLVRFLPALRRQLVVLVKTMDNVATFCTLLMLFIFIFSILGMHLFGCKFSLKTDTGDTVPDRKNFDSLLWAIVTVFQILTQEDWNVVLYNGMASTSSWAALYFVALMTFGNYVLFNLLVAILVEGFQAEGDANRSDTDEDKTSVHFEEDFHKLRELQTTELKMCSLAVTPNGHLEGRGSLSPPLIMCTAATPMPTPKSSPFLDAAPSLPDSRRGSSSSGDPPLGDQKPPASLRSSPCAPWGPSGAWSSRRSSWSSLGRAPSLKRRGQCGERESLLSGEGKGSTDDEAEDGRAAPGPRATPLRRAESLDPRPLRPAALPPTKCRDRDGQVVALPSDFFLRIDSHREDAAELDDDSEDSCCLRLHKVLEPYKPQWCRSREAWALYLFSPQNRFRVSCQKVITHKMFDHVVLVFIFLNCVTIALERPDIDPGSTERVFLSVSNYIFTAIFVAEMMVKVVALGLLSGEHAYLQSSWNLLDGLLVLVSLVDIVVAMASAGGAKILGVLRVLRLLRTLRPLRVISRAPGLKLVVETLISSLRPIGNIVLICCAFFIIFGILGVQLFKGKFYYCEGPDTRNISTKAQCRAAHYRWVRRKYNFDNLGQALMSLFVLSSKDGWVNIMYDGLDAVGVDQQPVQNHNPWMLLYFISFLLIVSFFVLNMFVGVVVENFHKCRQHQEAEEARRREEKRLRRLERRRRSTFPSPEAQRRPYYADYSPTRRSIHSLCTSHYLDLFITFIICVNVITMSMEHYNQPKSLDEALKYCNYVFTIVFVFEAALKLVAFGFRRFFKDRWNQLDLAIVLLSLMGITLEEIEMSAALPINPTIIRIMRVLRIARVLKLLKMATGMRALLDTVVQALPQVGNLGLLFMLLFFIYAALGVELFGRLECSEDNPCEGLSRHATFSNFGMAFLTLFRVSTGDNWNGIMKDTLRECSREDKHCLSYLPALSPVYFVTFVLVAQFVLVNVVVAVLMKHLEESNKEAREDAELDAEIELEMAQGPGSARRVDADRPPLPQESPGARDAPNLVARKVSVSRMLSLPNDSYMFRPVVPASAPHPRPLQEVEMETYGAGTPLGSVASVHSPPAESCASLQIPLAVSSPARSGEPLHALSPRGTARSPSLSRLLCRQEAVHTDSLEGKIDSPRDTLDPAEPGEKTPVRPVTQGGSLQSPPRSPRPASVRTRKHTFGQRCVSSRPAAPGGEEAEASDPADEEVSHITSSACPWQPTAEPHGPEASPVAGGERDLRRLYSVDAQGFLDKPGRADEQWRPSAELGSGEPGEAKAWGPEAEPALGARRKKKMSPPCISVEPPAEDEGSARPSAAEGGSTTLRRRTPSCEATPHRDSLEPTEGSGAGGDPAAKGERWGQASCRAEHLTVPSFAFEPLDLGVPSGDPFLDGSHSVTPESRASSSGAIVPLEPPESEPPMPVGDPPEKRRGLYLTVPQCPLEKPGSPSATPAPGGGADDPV
Chain of Alkaline phosphatase, placental type (P05187 whole entry): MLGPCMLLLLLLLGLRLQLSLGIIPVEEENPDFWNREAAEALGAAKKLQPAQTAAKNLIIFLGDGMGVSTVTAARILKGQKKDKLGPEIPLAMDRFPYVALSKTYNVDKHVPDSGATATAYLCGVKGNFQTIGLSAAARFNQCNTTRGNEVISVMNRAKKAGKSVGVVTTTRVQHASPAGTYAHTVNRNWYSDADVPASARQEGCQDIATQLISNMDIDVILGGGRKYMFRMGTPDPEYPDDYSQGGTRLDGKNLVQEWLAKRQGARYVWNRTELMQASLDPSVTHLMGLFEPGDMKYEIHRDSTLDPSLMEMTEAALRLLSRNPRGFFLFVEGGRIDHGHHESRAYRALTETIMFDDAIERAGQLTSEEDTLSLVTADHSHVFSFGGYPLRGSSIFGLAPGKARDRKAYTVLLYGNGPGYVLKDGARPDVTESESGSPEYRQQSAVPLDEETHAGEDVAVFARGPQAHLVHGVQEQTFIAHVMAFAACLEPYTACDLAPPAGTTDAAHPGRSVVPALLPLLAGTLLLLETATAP
Chain of Beta-galactosidase (Q8VNN2 whole entry): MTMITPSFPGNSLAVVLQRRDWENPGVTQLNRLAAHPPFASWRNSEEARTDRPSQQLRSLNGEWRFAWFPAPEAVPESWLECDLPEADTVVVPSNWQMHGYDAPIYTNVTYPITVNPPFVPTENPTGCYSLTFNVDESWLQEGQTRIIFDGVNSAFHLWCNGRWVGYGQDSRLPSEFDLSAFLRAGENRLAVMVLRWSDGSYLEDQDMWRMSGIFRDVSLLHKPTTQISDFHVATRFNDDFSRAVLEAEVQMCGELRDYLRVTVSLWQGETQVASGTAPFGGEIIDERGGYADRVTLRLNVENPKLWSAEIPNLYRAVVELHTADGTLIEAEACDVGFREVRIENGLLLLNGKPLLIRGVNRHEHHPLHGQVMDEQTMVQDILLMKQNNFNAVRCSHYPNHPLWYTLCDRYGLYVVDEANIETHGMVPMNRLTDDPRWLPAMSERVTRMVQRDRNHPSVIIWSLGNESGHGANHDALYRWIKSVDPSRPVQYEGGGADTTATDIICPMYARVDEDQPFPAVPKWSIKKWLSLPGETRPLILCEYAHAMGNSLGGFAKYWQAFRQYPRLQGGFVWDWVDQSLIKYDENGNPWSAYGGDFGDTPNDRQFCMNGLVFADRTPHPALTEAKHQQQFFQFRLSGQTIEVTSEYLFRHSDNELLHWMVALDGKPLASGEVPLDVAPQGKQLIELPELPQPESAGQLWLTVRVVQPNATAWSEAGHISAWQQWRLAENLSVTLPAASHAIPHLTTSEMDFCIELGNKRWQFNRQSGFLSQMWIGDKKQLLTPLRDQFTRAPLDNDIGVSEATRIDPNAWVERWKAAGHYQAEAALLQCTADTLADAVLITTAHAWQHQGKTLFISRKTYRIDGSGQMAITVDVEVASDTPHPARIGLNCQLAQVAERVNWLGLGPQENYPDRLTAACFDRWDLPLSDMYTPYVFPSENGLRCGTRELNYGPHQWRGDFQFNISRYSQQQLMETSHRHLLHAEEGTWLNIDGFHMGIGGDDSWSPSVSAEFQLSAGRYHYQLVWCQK
Chain of Nucleotide-binding oligomerization domain-containing protein 2 (Q9HC29 whole entry, the tested form may be a part): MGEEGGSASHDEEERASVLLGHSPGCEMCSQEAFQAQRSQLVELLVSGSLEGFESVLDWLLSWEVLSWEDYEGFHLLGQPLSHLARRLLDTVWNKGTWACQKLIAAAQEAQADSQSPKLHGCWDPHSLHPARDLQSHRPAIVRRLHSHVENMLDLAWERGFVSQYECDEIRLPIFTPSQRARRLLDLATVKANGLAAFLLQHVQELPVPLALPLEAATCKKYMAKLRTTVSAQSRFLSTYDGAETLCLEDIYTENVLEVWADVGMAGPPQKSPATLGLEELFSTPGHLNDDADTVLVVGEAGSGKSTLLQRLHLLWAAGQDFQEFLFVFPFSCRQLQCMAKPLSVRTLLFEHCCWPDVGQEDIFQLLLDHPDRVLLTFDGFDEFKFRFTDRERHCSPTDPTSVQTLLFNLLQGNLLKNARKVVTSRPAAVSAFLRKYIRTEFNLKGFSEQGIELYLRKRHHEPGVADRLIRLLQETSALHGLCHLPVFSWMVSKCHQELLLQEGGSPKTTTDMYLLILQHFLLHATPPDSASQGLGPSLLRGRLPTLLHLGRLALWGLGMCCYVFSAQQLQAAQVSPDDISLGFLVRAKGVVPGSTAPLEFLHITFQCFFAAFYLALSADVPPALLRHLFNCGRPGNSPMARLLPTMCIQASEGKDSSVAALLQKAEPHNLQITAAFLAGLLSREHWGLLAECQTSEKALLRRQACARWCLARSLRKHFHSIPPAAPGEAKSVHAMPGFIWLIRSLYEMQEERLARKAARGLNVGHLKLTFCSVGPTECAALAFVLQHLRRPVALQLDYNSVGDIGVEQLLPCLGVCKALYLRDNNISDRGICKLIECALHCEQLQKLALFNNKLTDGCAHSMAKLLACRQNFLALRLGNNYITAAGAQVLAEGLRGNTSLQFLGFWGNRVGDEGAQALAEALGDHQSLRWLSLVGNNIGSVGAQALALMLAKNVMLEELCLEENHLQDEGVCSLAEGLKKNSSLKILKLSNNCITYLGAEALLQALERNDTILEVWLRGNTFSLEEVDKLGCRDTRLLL

## COCCN(C(S)=Nc1c(C)cc(C)cc1C)C(C)c1cccnc1 (stereo not drawn)
[1]
  AC50: 57.7 µM (active)

## COc1cc(NC(=O)CSc2ncnc3scc(-c4ccccc4)c23)c(C(=O)O)cc1OC
[2]
  IC50: < 1 µM (active)
[3]
  IC50: 40.1 µM (active)

## Cc1ccc(N=C2C(=O)Nc3c(C)cccc32)cc1
[4]
  EC50: > 40 µM (inactive)
[5]
  IC50: > 40 µM (not active)

## CC(C)(C)n1nnnc1CN(Cc1ccc(F)cc1)Cc1ccco1
[6]
  EC50: 6.27 µM (active)

## O=C(CCCSc1nc2ccccc2[nH]1)NCc1ccccc1Cl
[7]
  EC50: 3.76 µM (active)

## CN1CCN(c2nc3c(c(=O)n(C)c(=O)n3C)n2CC(=O)C23CC4CC(CC(C4)C2)C3)CC1
[7]
  EC50: 2.11 µM (active)

## COc1ccc(NS(=O)(=O)c2ccc(-c3cnc(C4CC4)o3)cc2)cc1OC
[8]
  EC50: 2.04 µM (active)
[9]
  IC50: 6.05 µM (active)
[10]
  IC50: 18.4 µM (active)
[11]
  EC50: 14.4 µM (active)
[12]
  IC50: 6.25 µM (active)
[13]
  IC50: > 20 µM (inactive)
[14]
  IC50: > 80 µM (inactive)
[15]
  AC50: 3.52 µM (active)
[16]
  AC50: 1.33 µM (active)
[17]
  AC50: 2.32 µM (active)

## O=C(COC(=O)CCc1ccc(S(=O)(=O)N2CCCCC2)cc1)Nc1ccc2c(c1)OCO2
[6]
  EC50: 26.4 µM (active)

## CN1CCN(Cc2nc3ccccc3c(=O)n2Cc2nc(-c3cccc([N+](=O)[O-])c3)cs2)CC1
[3]
  IC50: 79.7 µM (active)

## O=C(CSc1nc2ccccc2o1)c1ccc(O)c(O)c1
[18]
  IC50: 3.06 µM (active)
[19]
  IC50: 4.15 µM (active)

## CCOC(=O)C1(c2ccccc2)CCN(CC(=O)Nc2ccc(C)cc2)CC1
[7]
  EC50: 2.99 µM (active)

Source: ChEMBL document CHEMBL1201862, “PubChem BioAssay data set” (2004)
